As a reminder, the pIC50 is the negative decadic logarithm of the IC50, by convention in mol/L.

pIC50: −log10 of the molar value.

In this assay the target is T1, BKB1 receptors (Homo sapiens, UniProt P46663).
T1 construct: Human (IMR-90) lung fibroblast cells expressing native B1 receptors; endogenous in cells; host or cells: IMR-90 human lung fibroblasts, interleukin-treated to up-regulate BKB1 receptors
T1 sequence (P46663 1-353): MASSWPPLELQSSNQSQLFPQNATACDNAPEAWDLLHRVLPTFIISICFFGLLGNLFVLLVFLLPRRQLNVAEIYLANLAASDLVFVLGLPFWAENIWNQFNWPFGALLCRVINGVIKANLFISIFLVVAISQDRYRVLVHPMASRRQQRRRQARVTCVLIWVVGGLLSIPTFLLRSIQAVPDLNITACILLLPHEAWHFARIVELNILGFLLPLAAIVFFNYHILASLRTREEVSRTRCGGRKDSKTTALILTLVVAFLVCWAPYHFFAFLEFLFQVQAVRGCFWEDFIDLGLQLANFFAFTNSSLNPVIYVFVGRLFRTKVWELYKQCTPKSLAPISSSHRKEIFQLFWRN
Briefly: Calcium mobilization assay (FLIPR), B1 receptors in IMR-90 cells. The class given is cell-based. Conditions: Human IMR-90 lung fibroblast cells, up-regulated BKB1 receptors, agonist desArg10-kallidin (DAKD) 2 to 8 nM, calcium-dependent fluorescence. How it is done:
Calcium mobilization assay (FLIPR)—Human (IMR-90) lung fibroblast cells expressing native B1 receptors were harvested by trypsinization and seeded into black wall/clear bottom 96-well plates (Costar 3904; Corning Life Sciences, Acton, Mass.) at approximately 13,000 cells/well. After 1 day incubation, cells were treated with […] (0.35 ng/ml) in 10% FBS/MEM for 2 h to up-regulate BKB1 receptors. Induced cells were loaded with fluorescent calcium indicator by incubation with 2.3 μM Fluo-4/acetoxymethyl ester (Invitrogen) at 37° C. for 1.5 h in the presence of an anion transport inhibitor (2.5 mM probenecid in 1% FBS/MEM). Extracellular dye was removed by washing with assay buffer (2.5 mM probenecid, 0.1% BSA in 20 mM HEPES/HBSS without bicarbonate or phenol red, pH 7.5) and cell plates were kept in the dark until used. Test compounds were assayed at eight concentrations in triplicate. Addition of test compounds to the cell plate and incubation for 5 min at 35° C., followed by the addition of 2 to 8 nM final BK1 agonist desArg^10-kallidin (DAKD, 3×EC50) was carried out in the fluorimetric imaging plate reader (FLIPR; Molecular Devices) while continuously monitoring calcium-dependent fluorescence.
For orientation: Calcium assays in cells follow changes in intracellular calcium, usually with a dye or a luminescent sensor.
On to `CC(C(N)=O)c1cccc(Nc2ccc3c(c2)OC(F)(F)O3)c1` (stereo not shown) [Compound 76, 2-{3-[(2,2-difluoro-1,3-benzodioxol-5-yl)amino]phenyl}propanamide], for which the negative-log IC50 (pIC50) is 5.05. Regarding `CC(C(=O)Nc1cnccn1)c1ccc(N2CCCCC2)cc1` (stereo not shown) [Compound 77, 2-[4-(piperidin-1-yl)phenyl]-N-(pyrazin-2-yl)propanamide], the pIC50 was 5.36. As to `CC(C(=O)Nn1cnnc1)c1ccc(NS(=O)(=O)c2ccc(Cl)cc2)cc1` (stereo not shown) [Compound 78, 2-(4-{[(4-chlorophenyl)sulfonyl]amino}phenyl)-N-(4H-1,2,4-triazol-4-yl) propanamide], the pIC50 was 6.05.

As to `CC(C(N)=O)c1ccc(Nc2ccc3c(c2)OC(F)(F)O3)cc1` (stereo not shown) [Compound 79, 2-{4-[(2,2-difluoro-1,3-benzodioxol-5-yl)amino]phenyl}propanamide], the pIC50 is 5.87. Take `CC(C(=O)Nc1ccncc1)c1ccc(Nc2cnc3ccccc3c2)cc1` (stereo not shown) [Compound 80, N-(pyridin-4-yl)-2-[4-(quinolin-3-ylamino)phenyl]propanamide]: the pIC50 was 5.28. Regarding `CC(C(=O)Nc1cc(Cl)cc(Cl)c1S(N)(=O)=O)c1ccc(OS(=O)(=O)c2ccccc2Cl)cc1` (stereo not shown) [Compound 81, 4-{1-[(3,5-dichloro-2-sulfamoylphenyl)amino]-1-oxopropan-2-yl}phenyl 2-chlorobenzenesulfonate], the pIC50 was 5.06. For `CC(C(=O)Nc1ccncc1)c1ccc(Nc2ccccc2-n2cccc2)cc1` (stereo not shown) [Compound 82], the pIC50 was 5.24.

Source of the values: patent publication US20120316169A1, “2-ARYL-PROPIONAMIDE DERIVATIVES USEFUL AS BRADYKININ RECEPTOR ANTAGONISTS AND PHARMACEUTICAL COMPOSITIONS CONTAINING THEM” (DOMPÉ S.P.A., priority 2009, published 2012).
